Assay results as given in patent publication US8624053B2, “Method to produce a stable dry ionic-bonded creatine α ketoglutarate of high oral absorbability” (priority 2012, dated 2014).

Tested on: athletes
Conditions: about half the dose provided from other preparations
From the text: (The actual dose depended on the athlete.)
The performance evaluations were made by experienced coaches, overlooking standard athletic tasks.

With “creatine α-ketoglutarate [product of the invention]” as the substance, how does the “time after delivery to peak performance” value read?
The value was “ten”.
